# Assay results reported in PubChem BioAssay (NCI).
#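 GI50 is the concentration that inhibits growth by half. TGI is the concentration that stops growth completely.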
# How the values were obtained:
# Assay in all cases: inhibition of tumour cell growth, NCI panel, 384-well format
# 786-0 renal = system: 786-0 renal
# A498 renal = system: A498 renal
# A549 NSCLC = system: A549 NSCLC
# ACHN renal = system: ACHN renal
# BT-549 breast = system: BT-549 breast
# CAKI-1 renal = system: CAKI-1 renal
# CCRF-CEM leukemia = system: CCRF-CEM leukemia
# COLO 205 colon = system: COLO 205 colon
# DU-145 prostate = system: DU-145 prostate
# HCC-2998 colon = system: HCC-2998 colon
# HCT-116 colon = system: HCT-116 colon
# HCT-15 colon = system: HCT-15 colon
# HL-60(TB) leukemia = system: HL-60(TB) leukemia
# HOP-62 NSCLC = system: HOP-62 NSCLC
# HOP-92 NSCLC = system: HOP-92 NSCLC
# HT29 colon = system: HT29 colon
# IGROV1 ovarian = system: IGROV1 ovarian
# K-562 leukemia = system: K-562 leukemia
# KM12 colon = system: KM12 colon
# LOX IMVI melanoma = system: LOX IMVI melanoma
# M14 melanoma = system: M14 melanoma
# MALME-3M melanoma = system: MALME-3M melanoma
# MCF7 breast = system: MCF7 breast
# MDA-MB-231 breast = system: MDA-MB-231 breast
# MDA-MB-435 melanoma = system: MDA-MB-435 melanoma
# MDA-MB-468 breast = system: MDA-MB-468 breast
# MOLT-4 leukemia = system: MOLT-4 leukemia
# NCI-H226 lung = system: NCI-H226 lung
# NCI-H23 lung = system: NCI-H23 lung
# NCI-H322M lung = system: NCI-H322M lung
# NCI-H460 NSCLC = system: NCI-H460 NSCLC
# NCI-H522 lung = system: NCI-H522 lung
# NCI/ADR-RES ovarian = system: NCI/ADR-RES ovarian
# OVCAR-3 ovarian = system: OVCAR-3 ovarian
# OVCAR-4 ovarian = system: OVCAR-4 ovarian
# OVCAR-5 ovarian = system: OVCAR-5 ovarian
# OVCAR-8 ovarian = system: OVCAR-8 ovarian
# PC-3 prostate = system: PC-3 prostate
# RPMI-8226 leukemia = system: RPMI-8226 leukemia
# RXF 393 renal = system: RXF 393 renal
# SF-268 CNS = system: SF-268 CNS
# SF-295 CNS = system: SF-295 CNS
# SF-539 CNS = system: SF-539 CNS
# SK-MEL-2 melanoma = system: SK-MEL-2 melanoma
# SK-MEL-28 melanoma = system: SK-MEL-28 melanoma
# SK-MEL-5 melanoma = system: SK-MEL-5 melanoma
# SK-OV-3 ovarian = system: SK-OV-3 ovarian
# SN12C renal = system: SN12C renal
# SNB-19 CNS = system: SNB-19 CNS
# SR leukemia = system: SR leukemia
# SW-620 colon = system: SW-620 colon
# T-47D breast = system: T-47D breast
# TK-10 renal = system: TK-10 renal
# U251 glioblastoma = system: U251 glioblastoma
# UACC-257 melanoma = system: UACC-257 melanoma
# UACC-62 melanoma = system: UACC-62 melanoma
# UO-31 renal = system: UO-31 renal
smiles,measurement,setting,value
COc1ccc(-c2c(-c3ccc(C#N)c(F)c3)nc(N3CCC(N)CC3)n(C)c2=O)cc1F,GI50,786-0 renal,10.6 µM
same,TGI,786-0 renal,22.5 µM
same,GI50,A498 renal,2.29 µM
same,TGI,A498 renal,7.42 µM
same,GI50,A549 NSCLC,16.7 µM
same,TGI,A549 NSCLC,30.5 µM
same,GI50,ACHN renal,12.4 µM
same,TGI,ACHN renal,24.9 µM
same,GI50,BT-549 breast,11.6 µM
same,TGI,BT-549 breast,23.9 µM
same,GI50,CAKI-1 renal,8.69 µM
same,TGI,CAKI-1 renal,20.8 µM
same,GI50,CCRF-CEM leukemia,13 µM
same,TGI,CCRF-CEM leukemia,25.8 µM
same,GI50,COLO 205 colon,12 µM
same,TGI,COLO 205 colon,24.3 µM
same,GI50,DU-145 prostate,15.1 µM
same,TGI,DU-145 prostate,28.9 µM
same,GI50,HCC-2998 colon,11 µM
same,TGI,HCC-2998 colon,23 µM
same,GI50,HCT-116 colon,6.86 µM
same,TGI,HCT-116 colon,19.8 µM
same,GI50,HCT-15 colon,15.7 µM
same,TGI,HCT-15 colon,29.3 µM
same,GI50,HL-60(TB) leukemia,3.89 µM
same,TGI,HL-60(TB) leukemia,15.1 µM
same,GI50,HOP-62 NSCLC,15.3 µM
same,TGI,HOP-62 NSCLC,28.7 µM
same,GI50,HOP-92 NSCLC,6.55 µM
same,TGI,HOP-92 NSCLC,19.1 µM
same,GI50,HT29 colon,9.51 µM
same,TGI,HT29 colon,21.6 µM
same,GI50,IGROV1 ovarian,13.9 µM
same,TGI,IGROV1 ovarian,26.9 µM
same,GI50,K-562 leukemia,11.8 µM
same,TGI,K-562 leukemia,24.1 µM
same,GI50,KM12 colon,13.1 µM
same,TGI,KM12 colon,25.9 µM
same,GI50,LOX IMVI melanoma,19.2 µM
same,TGI,LOX IMVI melanoma,33.3 µM
same,GI50,M14 melanoma,4.89 µM
same,TGI,M14 melanoma,16.6 µM
same,GI50,MALME-3M melanoma,2.46 µM
same,TGI,MALME-3M melanoma,6.58 µM
same,GI50,MCF7 breast,3.06 µM
same,TGI,MCF7 breast,9 µM
same,GI50,MDA-MB-231 breast,13.2 µM
same,TGI,MDA-MB-231 breast,25.9 µM
same,GI50,MDA-MB-435 melanoma,13.5 µM
same,TGI,MDA-MB-435 melanoma,26.4 µM
same,GI50,MDA-MB-468 breast,9.92 µM
same,TGI,MDA-MB-468 breast,21.5 µM
same,GI50,MOLT-4 leukemia,1.78 µM
same,TGI,MOLT-4 leukemia,3.17 µM
same,GI50,NCI-H226 lung,1.75 µM
same,TGI,NCI-H226 lung,3.27 µM
same,GI50,NCI-H23 lung,11.2 µM
same,TGI,NCI-H23 lung,28.6 µM
same,GI50,NCI-H322M lung,14.3 µM
same,TGI,NCI-H322M lung,28.3 µM
same,GI50,NCI-H460 NSCLC,3.41 µM
same,TGI,NCI-H460 NSCLC,10.9 µM
same,GI50,NCI-H522 lung,11.7 µM
same,TGI,NCI-H522 lung,24 µM
same,GI50,NCI/ADR-RES ovarian,16.5 µM
same,TGI,NCI/ADR-RES ovarian,30.3 µM
same,GI50,OVCAR-3 ovarian,13.2 µM
same,TGI,OVCAR-3 ovarian,26 µM
same,GI50,OVCAR-4 ovarian,14.3 µM
same,TGI,OVCAR-4 ovarian,27.6 µM
same,GI50,OVCAR-5 ovarian,14.7 µM
same,TGI,OVCAR-5 ovarian,28.2 µM
same,GI50,OVCAR-8 ovarian,14.5 µM
same,TGI,OVCAR-8 ovarian,27.6 µM
same,GI50,PC-3 prostate,13.8 µM
same,TGI,PC-3 prostate,26.8 µM
same,GI50,RPMI-8226 leukemia,7.53 µM
same,TGI,RPMI-8226 leukemia,19.6 µM
same,GI50,RXF 393 renal,2.69 µM
same,TGI,RXF 393 renal,9.41 µM
same,GI50,SF-268 CNS,14.1 µM
same,TGI,SF-268 CNS,27.1 µM
same,GI50,SF-295 CNS,16.8 µM
same,TGI,SF-295 CNS,30.4 µM
same,GI50,SF-539 CNS,13.8 µM
same,TGI,SF-539 CNS,26.8 µM
same,GI50,SK-MEL-2 melanoma,5.12 µM
same,TGI,SK-MEL-2 melanoma,17.8 µM
same,GI50,SK-MEL-28 melanoma,10.7 µM
same,TGI,SK-MEL-28 melanoma,22.6 µM
same,GI50,SK-MEL-5 melanoma,14.4 µM
same,TGI,SK-MEL-5 melanoma,27.5 µM
same,GI50,SK-OV-3 ovarian,12 µM
same,TGI,SK-OV-3 ovarian,24.4 µM
same,GI50,SN12C renal,12.9 µM
same,TGI,SN12C renal,25.6 µM
same,GI50,SNB-19 CNS,18 µM
same,TGI,SNB-19 CNS,32.1 µM
same,GI50,SR leukemia,1.69 µM
same,TGI,SR leukemia,3.06 µM
same,GI50,SW-620 colon,15.3 µM
same,TGI,SW-620 colon,28.7 µM
same,GI50,T-47D breast,10.4 µM
same,TGI,T-47D breast,22.1 µM
same,GI50,TK-10 renal,14.3 µM
same,TGI,TK-10 renal,27.5 µM
same,GI50,U251 glioblastoma,12.2 µM
same,TGI,U251 glioblastoma,24.7 µM
same,GI50,UACC-257 melanoma,1.71 µM
same,TGI,UACC-257 melanoma,3.16 µM
same,GI50,UACC-62 melanoma,2.18 µM
same,TGI,UACC-62 melanoma,5.43 µM
same,GI50,UO-31 renal,13.3 µM
same,TGI,UO-31 renal,26.1 µM
